Test results published in patent US5250543A, “Derivatives of 1,4-dihydropyridine, their preparation procedure and therapeutic compositions containing them” (priority 1991, dated 1993).
Structures can show the parent of a compound that is named as a salt. One block for each molecule: values may come before it.

Legend:
DHP membranous site = assay: Receptor binding at DHP membranous site with 3H-radiolabelled ligand isradipine; conditions: same value used as dose in aorta test, read-out: IC50 at the receptors
Method: (§1) For this purpose, the IC50 values were at first determined at the receptors (on the DHP membranous site with ^3 H-radiolabelled ligand isradipine and with these doses the percentage of inhibition in the contraction of the isolated aorta was determined.

rat's isolated aorta = assay: Calcium blocking activity in vitro: KCl contraction of the rat's isolated aorta; type: cell-based
Method: The calcium blocking activity was determined in vitro by using the method of contracting the rat's isolated aorta with KCI (see Bernard Swynghedauw--Animal Experiments in Cardiology, Collection INSERM Medicine Sciences, Flammarion).
as §1

[1] = Solubility in water (noted in preparation); type: physicochemical; conditions: isolated powder, in words
[2] = Acute toxicity (intraperitoneal) in rats; conditions: rat, in vivo, ip, Sprague-Dawley rats, Example 1 given as 20 mg/ml aqueous suspension, nicardipine under the same conditions
Method: The acute toxicity of the compound of example 1 was determined on rats injected intraperitoneally (Sprague-Dawley rats) and the product was administered as a 20 mg/ml aqueous suspension.

[3] = tested on: conscious Wistar rats suffering from genetic hypertension; assay: Effects on mean arterial pressure and heartbeat frequency in conscious rats suffering from genetic hypertension; type: in vivo, rat (Wistar); conditions: oral, 16 mg/kg; for Heartbeat frequency / tachycardiac effect (in words): early effect (nicardipine after five minutes)
Method: The effects were tested using conscious Wistar rats suffering from genetic hypertension (6 rats per compound). The compounds were administered orally as a 16 mg/kg (under 5.3 ml/kg) dose in suspension.

[4] = tested on: histamine hyperpermeability in Sprague-Dawley rats; assay: Effect on histamine hyperpermeability (Evan's Blue intradermal extravasation); type: in vivo, rat (Sprague-Dawley)
Method: The effect of CRL 41695 administered intraperitoneally on hystamine hyperpermeability was tested on Sprague-Dawley rats.
The parameter tested was the effect on Evan's Blue intradermal extravasation induced by histamine injection.
24 hours after shaving and epilation of the rat's flanks, CRL 41695 was injected intraperitoneally at dose levels of 10 mg/kg (dispersed in 0.9% NaCl +5% carboxymethylcellulose) and 10 minutes later 0.25 ml/100 g of Evan's Blue at 2% injected intravenously.
0.1 ml of 0.9% NaCl was then injected intradermally in the left flank and 0.01 ml of histamine ([…]) in the right flank.
The rats were sacrificed after 40 minutes and the injection sites removed. The Evan's Blue was extracted from the skin with 65% formamide and the solvent was removed by filtration. The optical density was determined as 620 nm.

Structure (SMILES): COC(=O)C1=C(C)NC(C)=C(C(=O)O[C@H]2CCCN(CCCC(=O)c3c(OC)cc(OC)cc3OC)C2)[C@H]1c1cccc([N+](=O)[O-])c1 (single isomer, unassigned) [Example 8, hydrochloride]
IC50 (DHP membranous site): 4 nM
inhibition at 0.004 µM (rat's isolated aorta; dose 4 × 10^-9 M (= receptor IC50)): 40%
Solubility in water [1]: water-insoluble

Structure (SMILES): COC(=O)C1=C(C)NC(C)=C(C(=O)OC2CCCN(CCCC(=O)c3c(OC)cc(OC)cc3OC)C2)C1c1cccc([N+](=O)[O-])c1 (centres unmarked) [Example 1, 2,6-dimethyl-4-(3-nitro-phenyl)-5-methoxycarbonyl-1,4-dihydropyridine-3-carboxylic acid N-[3-(2,4,6-trimethoxybenzoyl)propyl]piperidine-3'-yl ester, hydrochloride]
LD50 [2]: 249 ± 50 mg/kg
Duration of significant hypotension [3]: at least 7 hours
Heartbeat frequency, variation after 5 mins [3]: +13%
Arterial pressure, variation after 3 hrs [3]: -50%
Heartbeat frequency, variation after 5 hrs [3]: 0%
Arterial pressure, variation after 7 hrs [3]: -42%
Hypotension (in words) ([3]; during at least 7 hours): significantly raised
Heartbeat frequency / tachycardiac effect (in words) [3]: only slightly increased
Secondary tachycardiac effect (in words) [3]: not found
Antihyperpermeable effect (intradermal concentration of Evan's Blue induced by histamine, in words) ([4]; 10 mg/kg intraperitoneal): decrease greatly the intradermal concentration of Evan's Blue
Decrease in the intradermal concentration of Evan's Blue ([4]; ip, 10 mg/kg): 50%
Solubility in water ([1]; hydrochloride): water-insoluble

Structure (SMILES): COC(=O)C1=C(C)NC(C)=C(C(=O)OC2CCCN(CCCC(=O)c3c(OC)cc(OC)cc3OC)C2)C1c1cccc([N+](=O)[O-])c1 (centres unmarked) [Example 2, 2,6-dimethyl-4-(-3-nitrophenyl)-5-methoxycarbonyl-1,4-dihydropyridine-3-carboxylic acid N-[3-(2,4,6,trimethoxybenzoyl)propyl]piperidine-3-yl ester]
IC50 (DHP membranous site): 10 nM
inhibition at 0.01 µM (rat's isolated aorta; dose 10^-8 M (= receptor IC50)): 60%
Solubility in water [1]: soluble in water in the presence of acetic acid

Structure (SMILES): COC(=O)C1=C(C)NC(C)=C(C(=O)OCC2CCCN2CCCC(=O)c2c(OC)cc(OC)cc2OC)C1c1cccc([N+](=O)[O-])c1 (centres unmarked) [Example 3, 2,6-dimethyl-4-(3-nitrophenyl-5-methoxycarbonyl-1,4-dihydropyridine-3-carboxylic acid N-[3-(2,4,6-trimethoxybenzoyl)propyl]pyrrolidylmethyl ester, hydrochloride]
Solubility in water [1]: water-insoluble

Structure (SMILES): COC(=O)C1=C(C)NC(C)=C(C(=O)OC2CCCN(CCCC(=O)c3c(OC)cc(OC)cc3OC)C2)C1c1cccc([N+](=O)[O-])c1 (centres unmarked) [Example 10, 2,6-dimethyl-4-(3-nitrophenyl)-5-methoxycarbonyl-1,4-dihydropyridine-3-carboxylic acid N-[3-(2,4,6-trimethoxybenzoyl)propyl]piperidine-3'-yl, lactate]
Solubility in water [1]: soluble in cold water but is precipitated on warming

Structure (SMILES): COC(=O)C1=C(C)NC(C)=C(C(=O)OC2CCCN(CCCC(=O)c3c(OC)cc(OC)cc3OC)C2)C1c1cccc([N+](=O)[O-])c1 (centres unmarked) [Example 11, 2,6-dimethyl-4-(3-nitrophenyl)-5-methoxycarbonyl-1,4-dihydropyridine-3-carboxylic acid N-[3-(2,4,6-trimethoxybenzoyl)propyl]piperidine-3'-yl ester, glutamate]
Solubility in water [1]: water-insoluble

Structure (SMILES): COC(=O)C1=C(C)NC(C)=C(C(=O)OC2CCCN(CCCC(=O)c3c(OC)cc(OC)cc3OC)C2)C1c1cccc([N+](=O)[O-])c1 (centres unmarked) [Example 12, 2,6-dimethyl-4-(3-nitrophenyl)-5-methoxycarbonyl-1,4-dihydropyridine-3-carboxylic acid N-[3-(2,4,6-trimethoxybenzoyl)propyl]piperidine-3'-yl ester, aspartate]
Solubility in water [1]: water-insoluble

Structure (SMILES): COC(=O)C1=C(C)NC(C)=C(C(=O)OCCN(C)Cc2ccccc2)C1c1cccc([N+](=O)[O-])c1 (centres unmarked) [nicardipine, reference compound]
LD50 [2]: 233 ± 65 mg/kg
Time of maximum secondary tachycardiac effect [3]: 5 h
Heartbeat frequency, variation after 5 mins [3]: +32%
Arterial pressure, variation after 3 hrs [3]: -39%
Heartbeat frequency, variation after 5 hrs [3]: +23%
Arterial pressure, variation after 7 hrs [3]: -27%
Heartbeat frequency / tachycardiac effect (in words) [3]: clear tachycardiac effect after five minutes
Secondary tachycardiac effect (in words) [3]: secondary tachycardiae effect was also observed

Further lines, with some results ahead:

IC50 (DHP membranous site): 0.6 nM
Solubility in water [1]: water-insoluble
Structure (SMILES): COC(=O)C1=C(C)NC(C)=C(C(=O)O[C@@H]2CCCN(CCCC(=O)c3c(OC)cc(OC)cc3OC)C2)[C@H]1c1cccc([N+](=O)[O-])c1 (single isomer, unassigned) [Example 9, hydrochloride]
inhibition at 0.0006 µM (rat's isolated aorta; dose 6 × 10^-10 M (= receptor IC50)): 60%

IC50 (DHP membranous site): 3 nM
Solubility in water [1]: water-insoluble
Structure (SMILES): COC(=O)C1=C(C)NC(C)=C(C(=O)O[C@H]2CCCN(CCCC(=O)c3c(OC)cc(OC)cc3OC)C2)[C@H]1c1cccc([N+](=O)[O-])c1 [Example 4, (+)(4S, 3'S) 2,6-dimethyl-4-(3-nitrophenyl)-5-methoxycarbonyl-1,4-dihydropyridine-3-carboxylic acid N-[3-(2,4,6-trimethoxybenzoyl)propyl]piperidine-3'-yl ester]
inhibition at 0.003 µM (rat's isolated aorta; dose 3 × 10^-9 M (= receptor IC50)): 70%

Solubility in water [1]: water-insoluble
Structure (SMILES): COC(=O)C1=C(C)NC(C)=C(C(=O)O[C@@H]2CCCN(CCCC(=O)c3c(OC)cc(OC)cc3OC)C2)[C@@H]1c1cccc([N+](=O)[O-])c1 [Example 5, (-)(4R, 3'R) 2,6-dimethyl-4-(3-nitrophenyl)-5-methoxycarbonyl-1,4-dihydropyridine-3-carboxylic acid N-[3-(2,4,6-trimethoxybenzoyl)propyl]piperidine-3-yl ester]

Solubility in water [1]: water-insoluble
Structure (SMILES): COC(=O)C1=C(C)NC(C)=C(C(=O)O[C@H]2CCCN(CCCC(=O)c3c(OC)cc(OC)cc3OC)C2)[C@@H]1c1cccc([N+](=O)[O-])c1 [Example 6, (+)(4R, 3'S) 2,6-dimethyl-4-(3-nitrophenyl)-5-methoxycarbonyl-1,4-dihydropyridine-3-carboxylic acid N-[3-(2,4,6-trimethoxybenzoyl)propyl]piperidine-3'-yl ester]

IC50 (DHP membranous site): 2 nM
Solubility in water [1]: water-insoluble
Structure (SMILES): COC(=O)C1=C(C)NC(C)=C(C(=O)O[C@@H]2CCCN(CCCC(=O)c3c(OC)cc(OC)cc3OC)C2)[C@H]1c1cccc([N+](=O)[O-])c1 [Example 7, (-)(4S, 3'R) 2,6-dimethyl-4-(3-nitrophenyl)-5-methoxycarbonyl-1,4-dihydropyridine-3-carboxylic acid N-[3-(2,4,6-trimethoxybenzoyl)propyl]piperidine-3'-yl ester]
inhibition at 0.002 µM (rat's isolated aorta; dose 2 × 10^-9 M (= receptor IC50)): 80%
